According to PMC10146250, “Study on the liver Drug’s dominant metabolic enzymes for six effective components of the Huang qi Liuyi decoction” (Frontiers in Pharmacology, 2023):

Legend:
liver CYP450 enzymes = test: Mouse liver microsomal incubation with the panel of specific CYP enzyme inhibitors; assay type: in vitro ADME; conditions: mouse liver microsomes 1 mg/mL, 60 min, 37°C, component 100 ng/mL; inhibitors of CYP1A2, CYP2D22, CYP2E1, CYP2C37, CYP3A11, CYP2C11
Method: (§1) All reactions were performed in triplicate.

[1] = Metabolic conversion in the liver microsomal incubation system without inhibitor; conditions: for Metabolic conversion rate under different reaction times: 0, 15, 30, 45, 60, 90 min at 37°C; for Metabolic conversion rate at different protein concentrations: liver microsomal protein 0, 0.25, 0.5, 0.75, 1, 2 mg/mL, 60 min
Method: Before the experiment, the mice were fasted for 12 h, and were euthanized after blood was taken from the eye sockets. The liver was quickly removed and perfused with pre-cooled saline through the hepatic portal vein until the liver was earthy yellow, washed three times with 1.15% KCl solution, wiped dry with filter paper, and then weighed. The liver was then cut up, homogenized with three times the volume of ethylene diamine tetraacetic acid (EDTA) in an ice bath, and centrifuged at 4°C for 10 min at 3,000 g. The supernatant was filtered, and the filtrate was centrifuged at 4°C for 20 min at 12,000 g. The supernatant was then centrifuged at 4°C for 45 min at 100,000 g, and the precipitate was resuspended in a resuspension solution (EDTA homogenate containing 20% glycerol). The protein concentration of the microsomes was determined using the BCA protein concentration determination kit, and the microsomes were aliquoted and pre-stored at −20°C for 60 min and transferred to −80°C for storage.
The total volume of the reaction was kept at 200 μL. The in vitro incubation system comprised of 50 μL liver microsomes (1 mg/mL), 50 μL specific inhibitor solution, 20 μL nicotinamide adenine dinucleotide phosphate (NADPH, 1 mmol/L), and 80 μL standard solution (100 ng/mL). The solution containing liver microsomes, specific inhibitors, and the standard solution was pre-incubated for 5 min at 37°C. NADPH, pre-incubated for 5 min at 37°C, was added to commence the reaction, and the solution was incubated for 60 min at 37°C on a thermostatic oscillator. At the end of the reaction, […] of ice-cold methanol containing the IS (the final concentrations of digoxin and puerarin were 0.745 μg/mL and 1 μg/mL, respectively) was added to terminate the reaction. The samples were vortexed for 1 min and centrifuged for 10 min (15,000 r/min). The contents of six active components in the supernatant were determined by HPLC-MS-MS. All reactions were performed in triplicate.
The six-component mixed standard solutions were incubated with the liver microsomal sample of different protein concentrations (0, 0.25, 0.5, 0.75, 1, 2 mg/mL) for 60 min, each with six replicates. Subsequently, samples were prepared according to the methods described in Section 2.6. The residual contents of the six effective components in each group were determined by HPLC-MS/MS to calculate the metabolic conversion rate.
The mixed standard solution containing the six components was incubated with mouse liver microsomes at 37°C for different time (0, 15, 30, 45, 60, 90 min), each with six replicates. Subsequently, samples were prepared according to the methods described in Section 2.6. The residual contents of the six effective components in each group were determined by HPLC-MS/MS to calculate the metabolic conversion rate.
The standard solution of astragaloside IV, glycyrrhizic acid, calycosin-glucuronide, formononetin, calycosin-7-O-β-D-glucoside, and ononin was added to phosphate-buffered saline (PBS, pH 7.0) as desired for dilution to produce a series of mixed solutions (50, 100, 250, 500, 1,000 ng/mL). Each mixed solution sample was incubated with 1.0 mg/mL liver microsomes for 60 min. The residual contents of the six effective components were determined by HPLC-MS/MS to calculate the metabolic conversion rate.
Α-naphthoflavone, quinidine, clomethiazole, ticlopidine, ketoconazole, and fluconazole were selected as specific inhibitors of CYP1A2, CYP2D22, CYP2E1, CYP2C37, CYP3A11, and CYP2C11, respectively ([El-Sherbeni and El-Kadi, 2014]; [Xu et al., 2016]). Forty-eight mice were randomly divided into eight groups of six mice each. The eight groups comprised six different specific inhibitor groups, a negative control group and a control group. For different specific inhibitor groups, mouse liver microsomes were incubated with related CYP450 enzyme specific inhibitors and mixed standard solutions.

[2] = design: method as in Wang et al., 2022c; conditions: oral administration of HQD, ref Wang et al., 2022c; cited from earlier work
CYP1A2 = molecular target: T1, CYP1A2 (Mus musculus, UniProt P00186); test: Mouse liver microsomal incubation with α-naphthoflavone, specific inhibitor of CYP1A2; assay type: in vitro ADME; conditions: mouse liver microsomes 1 mg/mL, 60 min, 37°C, component 100 ng/mL, vs negative control without inhibitor
T1 construct: from tissue; host or cells: liver microsomes of control (db/m) mice
T1 sequence (P00186 1-513): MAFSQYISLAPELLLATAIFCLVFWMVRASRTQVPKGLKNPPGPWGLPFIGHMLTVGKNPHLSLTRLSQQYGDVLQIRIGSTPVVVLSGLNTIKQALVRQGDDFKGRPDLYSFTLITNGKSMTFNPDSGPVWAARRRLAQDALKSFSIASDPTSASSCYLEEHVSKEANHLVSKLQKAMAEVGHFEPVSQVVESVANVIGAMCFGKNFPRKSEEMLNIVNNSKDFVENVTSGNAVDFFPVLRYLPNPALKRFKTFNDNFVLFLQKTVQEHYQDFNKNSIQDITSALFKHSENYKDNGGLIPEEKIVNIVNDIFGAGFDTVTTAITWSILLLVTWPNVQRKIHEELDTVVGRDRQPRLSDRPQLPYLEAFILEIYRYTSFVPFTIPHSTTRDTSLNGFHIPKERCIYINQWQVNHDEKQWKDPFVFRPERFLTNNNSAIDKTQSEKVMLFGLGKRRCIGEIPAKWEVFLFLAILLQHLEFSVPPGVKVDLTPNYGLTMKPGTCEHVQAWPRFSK
Method: as §1

CYP2E1 = molecular target: T2, CYP2E1 (Mus musculus, UniProt Q05421); test: Mouse liver microsomal incubation with clomethiazole, specific inhibitor of CYP2E1; assay type: in vitro ADME; conditions: mouse liver microsomes 1 mg/mL, 60 min, 37°C, component 100 ng/mL, vs negative control without inhibitor
T2 construct: from tissue; host or cells: liver microsomes of control (db/m) mice
T2 sequence (Q05421 whole entry): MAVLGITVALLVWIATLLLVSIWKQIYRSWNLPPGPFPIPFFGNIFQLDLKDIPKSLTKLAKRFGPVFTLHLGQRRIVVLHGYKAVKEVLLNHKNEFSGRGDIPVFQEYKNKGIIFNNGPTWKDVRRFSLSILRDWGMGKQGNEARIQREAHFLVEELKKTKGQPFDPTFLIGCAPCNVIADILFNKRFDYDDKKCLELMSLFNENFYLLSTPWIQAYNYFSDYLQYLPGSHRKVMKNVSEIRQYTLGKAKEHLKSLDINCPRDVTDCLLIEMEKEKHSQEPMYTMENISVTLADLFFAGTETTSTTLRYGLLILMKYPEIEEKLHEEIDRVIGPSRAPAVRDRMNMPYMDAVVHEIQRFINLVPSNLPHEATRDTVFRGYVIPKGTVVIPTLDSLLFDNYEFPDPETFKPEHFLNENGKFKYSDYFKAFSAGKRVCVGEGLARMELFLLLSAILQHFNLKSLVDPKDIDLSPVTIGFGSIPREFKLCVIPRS
Method: as §1

CYP2C11 = test: Mouse liver microsomal incubation with fluconazole, specific inhibitor of CYP2C11; assay type: in vitro ADME; conditions: mouse liver microsomes 1 mg/mL, 60 min, 37°C, component 100 ng/mL, vs negative control without inhibitor
Method: as §1

CYP3A11 = test: Mouse liver microsomal incubation with ketoconazole, specific inhibitor of CYP3A11; assay type: in vitro ADME; conditions: mouse liver microsomes 1 mg/mL, 60 min, 37°C, component 100 ng/mL, vs negative control without inhibitor
Method: as §1

CYP2C37 = molecular target: T3, CYP2C37 (Mus musculus, UniProt P56654); test: Mouse liver microsomal incubation with ticlopidine, specific inhibitor of CYP2C37; assay type: in vitro ADME; conditions: mouse liver microsomes 1 mg/mL, 60 min, 37°C, component 100 ng/mL, vs negative control without inhibitor
T3 construct: from tissue; host or cells: liver microsomes of control (db/m) mice
T3 sequence (P56654 21-490): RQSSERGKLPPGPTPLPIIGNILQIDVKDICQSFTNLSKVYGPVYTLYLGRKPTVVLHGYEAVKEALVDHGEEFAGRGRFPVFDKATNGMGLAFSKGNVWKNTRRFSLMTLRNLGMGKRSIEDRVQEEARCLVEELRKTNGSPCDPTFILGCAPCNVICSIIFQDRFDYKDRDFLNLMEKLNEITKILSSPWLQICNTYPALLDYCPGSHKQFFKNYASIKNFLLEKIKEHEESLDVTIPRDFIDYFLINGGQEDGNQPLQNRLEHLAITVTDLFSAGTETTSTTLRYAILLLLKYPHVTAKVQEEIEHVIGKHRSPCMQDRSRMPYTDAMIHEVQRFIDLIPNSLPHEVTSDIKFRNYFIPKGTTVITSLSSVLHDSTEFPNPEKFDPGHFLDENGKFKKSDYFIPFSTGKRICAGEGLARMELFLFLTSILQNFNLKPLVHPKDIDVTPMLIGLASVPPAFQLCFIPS
Method: as §1

| Compound | Effect of the specific CYP enzyme inhibitors on metabolism of the component (liver CYP450 enzymes) | Effect of α-naphthoflavone (CYP1A2 inhibitor) on metabolism of the component (residual content) (CYP1A2) | Effect of clomethiazole (CYP2E1 inhibitor) on metabolism of the component (residual content) (CYP2E1) | Effect of ketoconazole (CYP3A11 inhibitor) on metabolism of the component (residual content) (CYP3A11) | Metabolic conversion rate under different reaction times [1] | Metabolic conversion rate at different protein concentrations [1] | Absorption and elimination in mice with diabetic nephropathy [2] | Effect of fluconazole (CYP2C11 inhibitor) on metabolism of the component (residual content) (CYP2C11) | Effect of ticlopidine (CYP2C37 inhibitor) on metabolism of the component (residual content) (CYP2C37) |
| --- | --- | --- | --- | --- | --- | --- | --- | --- | --- |
| COc1ccc(-c2coc3cc(O)ccc3c2=O)cc1O | – | prevented the metabolism | prevented the metabolism | – | increased with time, however, saturated after 60 min | initially increased with the increase in protein concentration | greater absorption and delayed elimination | – | – |
| COc1ccc(-c2coc3cc(O[C@@H]4O[C@H](CO)[C@@H](O)[C@H](O)[C@H]4O)ccc3c2=O)cc1O [Calycosin-7-O-β-D-glucoside] | not affected | – | – | – | increased with time, however, saturated after 60 min | initially increased with the increase in protein concentration | greater absorption and delayed elimination | – | – |
| CC(C)(O)[C@@H]1CC[C@](C)([C@H]2[C@@H](O)C[C@@]3(C)[C@@H]4C[C@H](O[C@@H]5O[C@H](CO)[C@@H](O)[C@H](O)[C@H]5O)[C@H]5C(C)(C)[C@@H](O[C@@H]6OC[C@@H](O)[C@H](O)[C@H]6O)CC[C@@]56C[C@@]46CC[C@]23C)O1 [Astragaloside IV] | – | – | – | – | increased with time, however, saturated after 60 min | initially increased with the increase in protein concentration | greater absorption and delayed elimination | prevented the metabolism | prevented the metabolism |

Further lines, with some results ahead:

| Effect of the specific CYP enzyme inhibitors on metabolism of the component (liver CYP450 enzymes) | Effect of α-naphthoflavone (CYP1A2 inhibitor) on metabolism of the component (residual content) (CYP1A2) | Effect of clomethiazole (CYP2E1 inhibitor) on metabolism of the component (residual content) (CYP2E1) | Effect of ketoconazole (CYP3A11 inhibitor) on metabolism of the component (residual content) (CYP3A11) | Compound | Metabolic conversion rate under different reaction times [1] | Metabolic conversion rate at different protein concentrations [1] | Absorption and elimination in mice with diabetic nephropathy [2] | Effect of fluconazole (CYP2C11 inhibitor) on metabolism of the component (residual content) (CYP2C11) | Effect of ticlopidine (CYP2C37 inhibitor) on metabolism of the component (residual content) (CYP2C37) |
| --- | --- | --- | --- | --- | --- | --- | --- | --- | --- |
| not affected | – | – | – | COc1ccc(-c2coc3cc(O[C@@H]4O[C@H](CO)[C@@H](O)[C@H](O)[C@H]4O)ccc3c2=O)cc1 [Ononin] | increased with time, however, saturated after 60 min | initially increased with the increase in protein concentration | greater absorption and delayed elimination | – | – |
| – | – | – | prevented the metabolism | COc1ccc(-c2coc3cc(O)ccc3c2=O)cc1 [Formononetin] | increased with time, however, saturated after 60 min | initially increased with the increase in protein concentration | greater absorption and delayed elimination | prevented the metabolism | – |
| – | – | – | prevented the metabolism | CC1(C)[C@@H](O[C@H]2O[C@H](C(=O)O)[C@@H](O)[C@H](O)[C@H]2O[C@@H]2O[C@H](C(=O)O)[C@@H](O)[C@H](O)[C@H]2O)CC[C@]2(C)[C@H]3C(=O)C=C4[C@@H]5C[C@@](C)(C(=O)O)CC[C@]5(C)CC[C@@]4(C)[C@]3(C)CC[C@@H]12 [Glycyrrhizic acid] | increased with time, however, saturated after 60 min | initially increased with the increase in protein concentration | greater absorption and delayed elimination | – | prevented the metabolism |
